Results from patent publication US20150105252A1, “SUBSTITUTED PYRAZOLES AS HERBICIDES” (E I DU PONT DE NEMOURS AND COMPANY, priority 2013, published 2015).

Experiments:
foxtail, green [1] = experiment: Test D preemergence; assay type: in vivo, Setaria viridis; conditions: for Plant response rating, Foxtail, Green: Preemergence, scale 0 to 100
From the text: (§1) Seeds of plant species selected from bluegrass (annual bluegrass, Poa annua), blackgrass (Alopecurus myosuroides), canarygrass (littleseed canarygrass, Phalaris minor), chickweed (common chickweed, Stellaria media), galium (catchweed bedstraw, Galium aparine), bromegrass, downy (downy bromegrass, Bromus tectorum), field poppy (Papaver rhoeas), field violet (Viola arvensis), foxtail, green (green foxtail, Setaria viridis), deadnettle (henbit deadnettle, Lamium amplexicaule), ryegrass, Italian (Italian ryegrass, Lolium multiflorum), kochia (Kochia scoparia), lambsquarters (Chenopodium album), oilseed rape (Brassica napus), pigweed (redroot pigweed, Amaranthus retroflexus), chamomile (scentless chamomile, Matricaria inodora), speedwell (bird's-eye speedwell, Veronica persica), barley, spring (spring barley, Hordeum vulgare), wheat, spring (spring wheat, Triticum aestivum), buckwheat, wild (wild buckwheat, Polygonum convolvulus), mustard, wild (wild mustard, Sinapis arvensis), oat, wild (wild oat, Avena fatua), radish, wild (wild radish, Raphanus raphanistrum), windgrass (Apera spica-venti), Russian thistle (Salsola kali), barley, winter (winter barley, Hordeum vulgare), and wheat, winter (winter wheat, Triticum aestivum) were planted into a silt loam soil and treated preemergence with test chemicals formulated in a non-phytotoxic solvent mixture which included a surfactant.
(§2) At the same time, these species were planted in pots containing Redi-Earth® planting medium (Scotts Company, 14111 Scottslawn Road, Marysville, Ohio 43041) comprising spaghnum peat moss, vermiculite, wetting agent and starter nutrients and treated with postemergence applications of the test chemicals formulated in the same manner. Plants ranged in height from 2 to 18 cm (1- to 4-leaf stage). Treated plants and controls were maintained in a controlled growth environment for 14 to 21 days after which time all species were compared to controls and visually evaluated. Plant response ratings, summarized in Table D, are based on a scale of 0 to 100 where 0 is no effect and 100 is complete control. A dash (-) response means no test result.

oilseed rape = experiment: Test D preemergence; assay type: in vivo, Brassica napus; conditions: for Plant response rating, Oilseed Rape: Preemergence, scale 0 to 100
From the text: as §1, §2

chamomile [2] = experiment: Test D postemergence; assay type: in vivo, Matricaria inodora; conditions: scale 0 to 100
From the text: as §1, §2

field violet = experiment: Test D postemergence; assay type: in vivo, Viola arvensis; conditions: scale 0 to 100
From the text: as §1, §2

oat, wild = experiment: Test D preemergence; assay type: in vivo, Avena fatua; conditions: for Plant response rating, Oat, Wild: Preemergence, scale 0 to 100
From the text: as §1, §2

kochia = experiment: Test D preemergence; assay type: in vivo, Kochia scoparia; conditions: for Plant response rating, Kochia: Preemergence, scale 0 to 100
From the text: as §1, §2

galium = experiment: Test D postemergence; assay type: in vivo, Galium aparine; conditions: scale 0 to 100
From the text: as §1, §2

barley, winter = experiment: Test D postemergence; assay type: in vivo, Hordeum vulgare; conditions: scale 0 to 100
From the text: as §1, §2

barley, spring = experiment: Test D postemergence; assay type: in vivo, Hordeum vulgare; conditions: scale 0 to 100
From the text: as §1, §2

blackgrass = experiment: Test D preemergence; assay type: in vivo, Alopecurus myosuroides; conditions: for Plant response rating, Blackgrass: Preemergence, scale 0 to 100
From the text: as §1, §2

chamomile [3] = experiment: Test D preemergence; assay type: in vivo, Matricaria inodora; conditions: for Plant response rating, Chamomile: Preemergence, scale 0 to 100
From the text: as §1, §2

wheat, winter = experiment: Test D preemergence; assay type: in vivo, Triticum aestivum; conditions: for Plant response rating, Wheat, Winter: Preemergence, scale 0 to 100
From the text: as §1, §2

wheat, spring = experiment: Test D preemergence; assay type: in vivo, Triticum aestivum; conditions: for Plant response rating, Wheat, Spring: Preemergence, scale 0 to 100
From the text: as §1, §2

speedwell = experiment: Test D postemergence; assay type: in vivo, Veronica persica; conditions: scale 0 to 100
From the text: as §1, §2

bluegrass = experiment: Test D preemergence; assay type: in vivo, Poa annua; conditions: for Plant response rating, Bluegrass: Preemergence, scale 0 to 100
From the text: as §1, §2

mustard, wild = experiment: Test D preemergence; assay type: in vivo, Sinapis arvensis; conditions: for Plant response rating, Mustard, Wild: Preemergence, scale 0 to 100
From the text: as §1, §2

canarygrass = experiment: Test D postemergence; assay type: in vivo, Phalaris minor; conditions: scale 0 to 100
From the text: as §1, §2

foxtail, green [4] = experiment: Test D postemergence; assay type: in vivo, Setaria viridis; conditions: scale 0 to 100
From the text: as §1, §2

lambsquarters = experiment: Test D postemergence; assay type: in vivo, Chenopodium album; conditions: scale 0 to 100
From the text: as §1, §2

[5] = 16 g ai/ha, taken as preemergence

Cc1cc(C(=O)NCC(F)(F)F)nn1Cc1ccnc(C(F)(F)F)c1 [Compound 74]
Plant response rating (scale 0 to 100), Foxtail, Green (foxtail, green [1]; [5]): 0
Plant response rating, Foxtail, Green (foxtail, green [1]; 31 g ai/ha): 5
Plant response rating, Foxtail, Green (foxtail, green [1]; 62 g ai/ha): 10
Plant response rating, Foxtail, Green (foxtail, green [1]; 125 g ai/ha): 30
Plant response rating (scale 0 to 100), Oilseed Rape (oilseed rape; [5]): 5
Plant response rating, Oilseed Rape (oilseed rape; 31 g ai/ha): 15
Plant response rating, Oilseed Rape (oilseed rape; 62 g ai/ha): 40
Plant response rating, Oilseed Rape (oilseed rape; 125 g ai/ha): 45
Plant response rating, Chamomile (chamomile [2]; Postemergence, 16 g ai/ha): 15
Chamomile plant response rating (chamomile [2]; Postemergence, 31 g ai/ha): 15
Chamomile plant response rating (chamomile [2]; Postemergence, 125 g ai/ha): 50
Chamomile plant response rating (chamomile [2]; postemergence, 62 g ai/ha): 20
Plant response rating, Field Violet (field violet; Postemergence, 16 g ai/ha): 25
Field Violet plant response rating (field violet; Postemergence, 31 g ai/ha): 30
Field Violet plant response rating (field violet; Postemergence, 125 g ai/ha): 50
Field Violet plant response rating (field violet; postemergence, 62 g ai/ha): 60
Plant response rating (scale 0 to 100), Oat, Wild (oat, wild; [5]): 20
Plant response rating, Oat, Wild (oat, wild; 31 g ai/ha): 10
Plant response rating, Oat, Wild (oat, wild; 62 g ai/ha): 10
Plant response rating, Oat, Wild (oat, wild; 125 g ai/ha): 30
Plant response rating (scale 0 to 100), Kochia (kochia; [5]): 50
Plant response rating, Kochia (kochia; 31 g ai/ha): 85
Plant response rating, Kochia (kochia; 62 g ai/ha): 100
Plant response rating, Kochia (kochia; 125 g ai/ha): 100
Plant response rating, Galium (galium; Postemergence, 16 g ai/ha): 10
Galium plant response rating (galium; Postemergence, 31 g ai/ha): 20
Galium plant response rating (galium; Postemergence, 125 g ai/ha): 70
Galium plant response rating (galium; postemergence, 62 g ai/ha): 40
Barley, Winter plant response rating (barley, winter; Postemergence, 16 g ai/ha): 0
Barley, Winter plant response rating (barley, winter; Postemergence, 31 g ai/ha): 0
Barley, Winter plant response rating (barley, winter; Postemergence, 125 g ai/ha): 5
Barley, Winter plant response rating (barley, winter; postemergence, 62 g ai/ha): 0
Barley, Spring plant response rating (barley, spring; Postemergence, 16 g ai/ha): 0
Barley, Spring plant response rating (barley, spring; Postemergence, 31 g ai/ha): 0
Barley, Spring plant response rating (barley, spring; Postemergence, 125 g ai/ha): 0
Barley, Spring plant response rating (barley, spring; postemergence, 62 g ai/ha): 0
Plant response rating (scale 0 to 100), Blackgrass (blackgrass; [5]): 0
Plant response rating, Blackgrass (blackgrass; 31 g ai/ha): 0
Plant response rating, Blackgrass (blackgrass; 62 g ai/ha): 10
Plant response rating, Blackgrass (blackgrass; 125 g ai/ha): 15
Plant response rating (scale 0 to 100), Chamomile (chamomile [3]; [5]): 20
Plant response rating, Chamomile (chamomile [3]; 31 g ai/ha): 60
Plant response rating, Chamomile (chamomile [3]; 62 g ai/ha): 80
Plant response rating, Chamomile (chamomile [3]; 125 g ai/ha): 90
Plant response rating (scale 0 to 100), Wheat, Winter (wheat, winter; [5]): 0
Plant response rating, Wheat, Winter (wheat, winter; 31 g ai/ha): 0
Plant response rating, Wheat, Winter (wheat, winter; 62 g ai/ha): 0
Plant response rating, Wheat, Winter (wheat, winter; 125 g ai/ha): 5
Plant response rating (scale 0 to 100), Wheat, Spring (wheat, spring; [5]): 0
Plant response rating, Wheat, Spring (wheat, spring; 31 g ai/ha): 0
Plant response rating, Wheat, Spring (wheat, spring; 62 g ai/ha): 0
Plant response rating, Wheat, Spring (wheat, spring; 125 g ai/ha): 0
Plant response rating, Speedwell (speedwell; Postemergence, 16 g ai/ha): 75
Speedwell plant response rating (speedwell; Postemergence, 31 g ai/ha): 60
Speedwell plant response rating (speedwell; Postemergence, 125 g ai/ha): 75
Speedwell plant response rating (speedwell; postemergence, 62 g ai/ha): 70
Plant response rating (scale 0 to 100), Bluegrass (bluegrass; [5]): 0
Plant response rating, Bluegrass (bluegrass; 31 g ai/ha): 0
Plant response rating, Bluegrass (bluegrass; 62 g ai/ha): 0
Plant response rating, Bluegrass (bluegrass; 125 g ai/ha): 5
Plant response rating (scale 0 to 100), Mustard, Wild (mustard, wild; [5]): 15
Plant response rating, Mustard, Wild (mustard, wild; 31 g ai/ha): 25
Plant response rating, Mustard, Wild (mustard, wild; 62 g ai/ha): 25
Plant response rating, Mustard, Wild (mustard, wild; 125 g ai/ha): 80
Plant response rating, Canarygrass (canarygrass; Postemergence, 16 g ai/ha): 0
Canarygrass plant response rating (canarygrass; Postemergence, 31 g ai/ha): 0
Canarygrass plant response rating (canarygrass; Postemergence, 125 g ai/ha): 0
Canarygrass plant response rating (canarygrass; postemergence, 62 g ai/ha): 0
Plant response rating, Foxtail, Green (foxtail, green [4]; Postemergence, 16 g ai/ha): 0
Foxtail, Green plant response rating (foxtail, green [4]; Postemergence, 31 g ai/ha): 10
Foxtail, Green plant response rating (foxtail, green [4]; Postemergence, 125 g ai/ha): 40
Foxtail, Green plant response rating (foxtail, green [4]; postemergence, 62 g ai/ha): 15
Plant response rating, Lambsquarters (lambsquarters; Postemergence, 16 g ai/ha): 70
Lambsquarters plant response rating (lambsquarters; Postemergence, 31 g ai/ha): 70
Lambsquarters plant response rating (lambsquarters; Postemergence, 125 g ai/ha): 85
Lambsquarters plant response rating (lambsquarters; postemergence, 62 g ai/ha): 75
